In patent US11479551B2, “MTA-cooperative PRMT5 inhibitors” (Mirati Therapeutics, Inc., priority 2019, dated 2022) one finds IC50 data, which are given here for 16 molecules.

The subject of assay [1] is PRMT5-dependent Symmetric Di-methyl Arginine signal in HCT116 homozygous MTAP knockout cells. The experiment in a line: SYM11 In-Cell Western, HCT116 MTAP knockout. Format: cell-based. As to conditions: Homo sapiens, HCT-116, 96 h, HCT116 homozygous MTAP knockout cells, 4 days of treatment, SYM11/DRAQ5 ratio; read-out: In-cell-Western (SYM11) HCT116 MTAP_KO IC50.
Assay [2] has as its system HCT116 parental cells. Nature of the assay: Proliferation assay (CellTiter-Glo, 10 days of treatment), HCT116 parental. Format: cell-based. As to conditions: Homo sapiens, HCT-116, 240 h. The method, then:
(§1) Control samples were analyzed in parallel.
Briefly, on Day 0, 250 HCT116 parental or HCT116 homozygous MTAP knockout cell were seeded in 96 well plates in McCoy's 5A supplemented with 10% fetal bovine serum and pen/strep and the cells were incubated overnight at 37° C. plus 5% CO2.
The following day, cells were treated with DMSO vehicle control or a dose response of PRMT5 inhibitors and incubated at 37 C plus 5% CO2 for five days. On Day 6, the cells were trypsinized and split 1:10 into new 96-well plates with fresh medium containing the same concentration of PRMT5 inhibitor and incubated for an additional 5 days at 37° C. plus 5% CO^2.
On Day 11, the viability of the cells was measured using a CTG assay kit (CellTiter-Glo; Promega cat.no G7573) in accordance with the manufacturer's instructions. The IC50 values for each compound after 10 days of treatment were calculated using GraphPad PRISM software.

Assay [3] has as its target T1, PRMT5/MEP50 complex (Homo sapiens (Human), UniProt O14744). The experiment in a line: PRMT5:MEP50 HotSpot Assay (full-length histone H2A substrate, plus and minus MTA). Format: biochemical. As to conditions: IC50 + 2 μM MTA, in the presence of 2 μM MTA. In outline:
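Radiometric filter-binding format using recombinant full-length histone H2A as substrate. After the reaction was stopped, mixtures went onto filter paper and tritiated H2A was quantified by scintillation counting.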

For assay [4], the system named is HCT116 homozygous MTAP knockout cells. The experiment in a line: Proliferation assay (CellTiter-Glo, 10 days of treatment), HCT116 MTAP knockout. Format: cell-based. As to conditions: Homo sapiens, HCT-116, 240 h, read-out: Proliferation HCT116MTAP_KO IC50. In a few lines:
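Cells (250/well) seeded in McCoy's 5A with 10% FBS, then treated the next day with a PRMT5 inhibitor dose response at 37 °C, 5% CO2. On day 6 they were split 1:10 into fresh medium with the same compound concentration. CellTiter-Glo viability was read on day 11 and IC50 taken after 10 days of treatment.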

Assay [5] concerns PRMT5-dependent Symmetric Di-methyl Arginine signal in HCT116 parental cells. The experiment in a line: SYM11 In-Cell Western, HCT116 parental. Format: cell-based. As to conditions: Homo sapiens, HCT-116, 96 h, 4 days of treatment, SYM11/DRAQ5 ratio. How it is done:
as §1
Briefly, on Day 0, 2,000 HCT116 parental or HCT116 homozygous MTAP knockout cells were seeded in 96 well plates in McCoy's 5A supplemented with 10% fetal bovine serum and pen/strep and the cells were incubated overnight at 37° C. plus 5% CO2. The following day, cells were treated with DMSO vehicle control or a dose response of PRMT5 inhibitors, and incubated at 37° C. plus 5% CO^2 for four days.
After 4 days of treatment, the cells were fixed by adding 50 μl of 4% paraformaldehyde solution to each well and the cells were incubated for 20 min at room temperature. The paraformaldehyde solution was removed, 150 μl of ice-cold methanol was added and the plate was placed −20° C. for 10 minutes. The methanol was removed, 150 μl of Odyssey Blocking buffer+0.05% Tween20 was added and the plate was incubated at room temperature with shaking for one hour.
The primary SYM11 antibody solution was removed by aspiration and the wells were washed three consecutive times with phosphate buffered saline containing 0.1% Tween-20 (PBST).
The secondary antibody solution was removed by aspiration and the wells were washed three consecutive times with PB ST.
The SYM11 signal and the DRAQ5 signal were quantified using a Li-Cor Odyssey machine reading at […], respectively. The SYM11/DRAQ5 ratio was used to calculate the inhibition of Symmetric Dimethyl Arginine as percent of DMSO control.

Assay [6] has as its target T1, PRMT5/MEP50 complex. The experiment in a line: PRMT5:MEP50 FlashPlate Assay (histone H4 peptide substrate, plus and minus MTA). Format: biochemical. How it is done:
The PRMT5 inhibitory activity of compounds of the present invention was determined using either a PRMT5:MEP50 FlashPlate Assay (Reaction Biology Corporation) or a PRMT5:MEP50 HotSpot Assay (Reaction Biology Corporation).
1. PRMT5:MEP50 FlashPlate Assay

T1 sequence (O14744 2-637): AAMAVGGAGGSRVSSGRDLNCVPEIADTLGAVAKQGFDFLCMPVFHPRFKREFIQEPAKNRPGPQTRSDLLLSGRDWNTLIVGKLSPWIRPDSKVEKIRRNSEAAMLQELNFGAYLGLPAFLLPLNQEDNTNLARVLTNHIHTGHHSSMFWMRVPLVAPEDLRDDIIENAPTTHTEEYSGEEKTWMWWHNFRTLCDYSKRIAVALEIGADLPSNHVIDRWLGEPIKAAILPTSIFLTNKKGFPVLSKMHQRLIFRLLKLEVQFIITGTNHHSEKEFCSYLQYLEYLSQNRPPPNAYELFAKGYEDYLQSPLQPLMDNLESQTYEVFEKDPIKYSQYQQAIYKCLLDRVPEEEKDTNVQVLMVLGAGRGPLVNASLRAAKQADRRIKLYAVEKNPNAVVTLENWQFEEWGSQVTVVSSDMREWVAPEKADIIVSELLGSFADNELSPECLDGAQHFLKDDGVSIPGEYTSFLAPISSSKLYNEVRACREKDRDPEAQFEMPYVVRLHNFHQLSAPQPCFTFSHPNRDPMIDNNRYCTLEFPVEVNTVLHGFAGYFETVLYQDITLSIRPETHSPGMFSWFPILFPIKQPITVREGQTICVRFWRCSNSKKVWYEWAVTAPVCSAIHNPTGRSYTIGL
T1 sequence (Q9BQA1 2-342 partner): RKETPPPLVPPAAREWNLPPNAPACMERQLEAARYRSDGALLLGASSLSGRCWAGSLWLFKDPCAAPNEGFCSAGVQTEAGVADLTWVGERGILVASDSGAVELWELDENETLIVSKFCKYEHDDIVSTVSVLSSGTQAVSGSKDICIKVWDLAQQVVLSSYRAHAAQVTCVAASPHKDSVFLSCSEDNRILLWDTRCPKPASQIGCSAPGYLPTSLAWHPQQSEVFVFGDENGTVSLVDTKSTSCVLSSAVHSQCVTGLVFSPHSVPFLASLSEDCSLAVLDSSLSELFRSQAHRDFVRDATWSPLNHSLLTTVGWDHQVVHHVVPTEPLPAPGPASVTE

Take `CCc1cccc(-c2c(-c3cc(C)c4c(=O)[nH]nc(CN)c4c3)cnn2C)c1C#N` [Example 10-7, 2-(4-(4-(aminomethyl)-8-methyl-1-oxo-1,2-dihydrophthalazin-6-yl)-1-methyl-1H-pyrazol-5-yl)-6-ethylbenzonitrile]: the IC50 in assay [1] was 31 nM; in assay [2] it was 8390 nM; in assay [3] it was 107 nM; in assay [4], 103 nM; in assay [5] it was more than 1000 nM.

As for `Cc1cc(-c2cnn(C)c2-c2ccc3ccccc3c2C#N)cc2c(CN)n[nH]c(=O)c12` [Example 10-11, 2-(4-(4-(aminomethyl)-8-methyl-1-oxo-1,2-dihydrophthalazin-6-yl)-1-methyl-1H-pyrazol-5-yl)-1-naphthonitrile], the IC50 was determined as 5 nM in assay [1]; 763 nM in assay [2]; 34 nM in assay [3]; 29 nM in assay [4]; 4260 nM in assay [5].

With `Cc1cc(C2CC2)cc(-c2c(-c3ccc4c(=O)[nH]nc(CN)c4c3)cnn2C)c1C#N` [Example 12-14, 2-[4-[4-(aminomethyl)-1-oxo-2H-phthalazin-6-yl]-2-methyl-pyrazol-3-yl]-4-cyclopropyl-6-methyl-benzonitrile], the IC50 was 15 nM in assay [1]; more than 10000 nM in assay [2]; 182 nM in assay [3]; 226 nM in assay [4]; 1810 nM in assay [5].

Regarding `Cn1ncc(-c2ccc3c(=O)[nH]nc(CN)c3c2)c1-c1ccc(Cl)c(Cl)c1C#N` [Example 4-148, 6-(4-(4-(aminomethyl)-1-oxo-1,2-dihydrophthalazin-6-yl)-1-methyl-1H-pyrazol-5-yl)-2,3-dichlorobenzonitrile], the IC50 came to 30 nM in assay [1]; 7750 nM in assay [2]; 229 nM in assay [3]; 307 nM in assay [4]; 8550 nM in assay [5].

For the molecule `Cn1ncc(-c2ccc3c(=O)[nH]nc(CN)c3c2)c1-c1ccc2cccnc2c1C#N` [Example 4-192, 7-(4-(4-(aminomethyl)-1-oxo-1,2-dihydrophthalazin-6-yl)-1-methyl-1H-pyrazol-5-yl)quinoline-8-carbonitrile], the IC50 in assay [1] is 256 nM; in assay [2] it was more than 10000 nM; in assay [3], 890 nM; in assay [4] it was 2140 nM; in assay [5], more than 10000 nM.

Consider `Cn1ncc(-c2ccc3c(=O)[nH]nc(CN)c3c2)c1-c1cc(Cl)cc(OC2CC2)c1C#N` [Example 4-188, 2-(4-(4-(aminomethyl)-1-oxo-1,2-dihydrophthalazin-6-yl)-1-methyl-1H-pyrazol-5-yl)-4-chloro-6-cyclopropoxybenzonitrile], for which the IC50 in assay [1] was 4 nM; in assay [2], 904 nM; in assay [3], 99 nM; in assay [4], 39 nM; in assay [5] it was more than 10000 nM.

On to `Cn1ncc(-c2ccc3c(=O)[nH]nc(CN)c3c2)c1-c1cc(Cl)c2ccccc2c1C#N` [Example 4-206, 2-(4-(4-(aminomethyl)-1-oxo-1,2-dihydrophthalazin-6-yl)-1-methyl-1H-pyrazol-5-yl)-4-chloro-1-naphthonitrile], for which the IC50 in assay [1] was 3 nM; in assay [2], 1000 nM; in assay [3], 35 nM; in assay [4], 34 nM; in assay [5], more than 1000 nM.

Take `CCc1cc(Cl)cc(-c2c(-c3ccc4c(=O)[nH]nc(CN)c4c3)cnn2C)c1C#N` [Example 4-200, 2-(4-(4-(aminomethyl)-1-oxo-1,2-dihydrophthalazin-6-yl)-1-methyl-1H-pyrazol-5-yl)-4-chloro-6-ethylbenzonitrile]: the IC50 is 32 nM in assay [1]; 4300 nM in assay [2]; 156 nM in assay [3]; 71 nM in assay [4]; 1750 nM in assay [5].

As to `Cc1cc(-c2c(-c3ccc4c(=O)[nH]nc(CN)c4c3)cnn2C)c(C#N)cc1Cl` [Example 4-132, 2-(4-(4-(aminomethyl)-1-oxo-1,2-dihydrophthalazin-6-yl)-1-methyl-1H-pyrazol-5-yl)-5-chloro-4-methylbenzonitrile], the IC50 is 24 nM in assay [1]; more than 10000 nM in assay [2]; 2560 nM in assay [3]; 595 nM in assay [4]; more than 10000 nM in assay [5].

On to `NCc1n[nH]c(=O)c2ccc(-c3cncc(Oc4cccc(Cl)c4)c3)cc12` [Example 4-67, 4-(aminomethyl)-6-(5-(3-chlorophenoxy)pyridin-3-yl)phthalazin-1(2H)-one], for which the IC50 was 945 nM in assay [1]; 7700 nM in assay [2]; 2030 nM in assay [4]; 10000 nM in assay [5]; 4 nM in assay [6] (IC50 + 2 μM MTA (nM), in the presence of 2 μM MTA); 204 nM in assay [6] (in the absence of MTA, read-out: IC50).

For `Cn1ncc(-c2ccc3c(=O)[nH]nc(CN)c3c2)c1-c1ccc2ccc(F)cc2c1C#N` [Example 4-217, 2-(4-(4-(aminomethyl)-1-oxo-1,2-dihydrophthalazin-6-yl)-1-methyl-1H-pyrazol-5-yl)-7-fluoro-1-naphthonitrile], the IC50 was 87 nM in assay [1], 2150 nM in assay [2], 96 nM in assay [4] and more than 1000 nM in assay [5].

On to `Cn1ncc(-c2ccc3c(=O)[nH]nc(CN)c3c2)c1-c1c(C#N)cc2ccccc2c1Cl` [Example 4-229, 3-(4-(4-(aminomethyl)-1-oxo-1,2-dihydrophthalazin-6-yl)-1-methyl-1H-pyrazol-5-yl)-4-chloro-2-naphthonitrile], for which the IC50 in assay [1] was 11 nM; in assay [2] it was 2860 nM; in assay [4], 59 nM; in assay [5], more than 1000 nM.

`COc1cccc2c(C#N)c(-c3c(-c4ccc5c(=O)[nH]nc(CN)c5c4)cnn3C)ccc12` [Example 4-204, 2-(4-(4-(aminomethyl)-1-oxo-1,2-dihydrophthalazin-6-yl)-1-methyl-1H-pyrazol-5-yl)-5-methoxy-1-naphthonitrile]: the IC50 in assay [1] is 12 nM; in assay [2], 1830 nM; in assay [4], 52 nM; in assay [5], more than 1000 nM.

On to `Cn1ncc(-c2ccc3c(=O)[nH]nc(CN)c3c2)c1-c1cc(F)c2ccccc2c1C#N` [Example 4-224, 2-(4-(4-(aminomethyl)-1-oxo-1,2-dihydrophthalazin-6-yl)-1-methyl-1H-pyrazol-5-yl)-4-fluoro-1-naphthonitrile], for which the IC50 in assay [1] was 10 nM; in assay [2] it was 7810 nM; in assay [4], 416 nM; in assay [5] it was more than 1000 nM.

Consider `Cn1ncc(-c2ccc3c(=O)[nH]nc(CN)c3c2)c1-c1ccc2ncc(Cl)cc2c1C#N` [Example 4-225, 6-[4-[4-(aminomethyl)-1-oxo-2H-phthalazin-6-yl]-2-methyl-pyrazol-3-yl]-3-chloro-quinoline-5-carbonitrile], for which the IC50 was 17 nM in assay [1], 5170 nM in assay [2], 84 nM in assay [4] and more than 1000 nM in assay [5].

Regarding `Cn1ncc(-c2ccc3c(=O)[nH]nc(CN)c3c2)c1-c1cc(C#N)c2ccccc2c1F` [Example 4-210, 3-(4-(4-(aminomethyl)-1-oxo-1,2-dihydrophthalazin-6-yl)-1-methyl-1H-pyrazol-5-yl)-4-fluoro-1-naphthonitrile], the IC50 was 8 nM in assay [1], 1360 nM in assay [2], 416 nM in assay [4] and more than 1000 nM in assay [5].
